According to PubChem BioAssay (NCI):
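The compound was tested at five concentrations on cells cultured in 96-well plates, with a 48-hour exposure period. GI50 = concentration required for 50% inhibition of growth. TGI denotes the concentration required for complete inhibition of growth.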

Columns and labels:
Assay in all cases: NCI tumour cell line growth inhibition, 48 h
786-0 renal = test system: 786-0 renal
A549 NSCLC = test system: A549 NSCLC
IGROV1 ovarian = test system: IGROV1 ovarian
KM12 colon = test system: KM12 colon
NCI-H23 lung = test system: NCI-H23 lung
NCI-H460 lung = test system: NCI-H460 lung
RPMI-8226 leukemia = test system: RPMI-8226 leukemia
SNB-75 CNS = test system: SNB-75 CNS
TK-10 renal = test system: TK-10 renal
UACC-62 melanoma = test system: UACC-62 melanoma

| Compound | GI50 (786-0 renal) | TGI (786-0 renal) | GI50 (A549 NSCLC) | TGI (A549 NSCLC) | GI50 (IGROV1 ovarian) | TGI (IGROV1 ovarian) | GI50 (KM12 colon) | TGI (KM12 colon) | GI50 (NCI-H23 lung) | TGI (NCI-H23 lung) | GI50 (NCI-H460 lung) | TGI (NCI-H460 lung) | GI50 (RPMI-8226 leukemia) | TGI (RPMI-8226 leukemia) | GI50 (SNB-75 CNS) | TGI (SNB-75 CNS) | GI50 (TK-10 renal) | TGI (TK-10 renal) | GI50 (UACC-62 melanoma) | TGI (UACC-62 melanoma) |
| --- | --- | --- | --- | --- | --- | --- | --- | --- | --- | --- | --- | --- | --- | --- | --- | --- | --- | --- | --- | --- |
| CCOC(=O)[C]1([Bi]([CH3])[CH3])N=NC(C(=O)OC)=C1C(=O)OC (centres undefined) | 18.8 µM | 33.2 µM | > 10 µM | > 10 µM | 24.6 µM | 51.9 µM | 21.5 µM | 49.2 µM | 18 µM | 35 µM | > 100 µM | > 100 µM | 21.5 µM | 67.2 µM | 15.6 µM | 29.9 µM | 17.3 µM | 32.1 µM | 19.5 µM | 34.4 µM |
| C[C@]12CC[C@H]3[C@@H](CC=C4C[C@@H](O)CC[C@@]43C)[C@@H]1CC[C@@H]2N(CCO)CCO |  | 42.7 µM |  | > 100 µM |  | > 100 µM |  | > 100 µM |  | > 100 µM |  | > 100 µM |  | > 100 µM |  | > 100 µM |  | > 100 µM |  | > 100 µM |
| N#Cc1ccc(NC(=O)Nc2ccc(Oc3ccc(NC(=O)Nc4ccc(C#N)cc4)cc3)cc2)cc1 | 10.5 µM | 63.4 µM | 17.8 µM | > 100 µM | 30.4 µM | > 100 µM | 11.2 µM | > 100 µM | 6.53 µM | 56.5 µM | 3.24 µM | > 100 µM | 0.994 µM | 39.6 µM | 4.14 µM | 24.4 µM | 23.2 µM | 89 µM | 11.1 µM | > 100 µM |
| CCCn1cnc2c(SCc3ccccc3Cl)nc(N)nc21 | 14.9 µM | 31.6 µM | 20.8 µM | > 100 µM | 13.3 µM | > 100 µM | 15.3 µM | > 100 µM | 30 µM | > 100 µM | 4.2 µM | 26.4 µM | 6.28 µM | 28.2 µM | 19.7 µM | 86 µM | 14.5 µM | > 100 µM | 8.53 µM | 22.7 µM |
| O=C1O[C@@H](c2ccc3c(c2)OCO3)C2C(=O)O[C@@H](c3ccc4c(c3)OCO4)C12 (some centres undefined) |  | > 100 µM |  | > 100 µM |  | > 100 µM |  | > 100 µM |  | > 100 µM |  | > 100 µM |  | > 100 µM |  | > 100 µM |  | > 100 µM |  | > 100 µM |
| CCOC(=O)C1=C(OC(OCC)C(CC)[Se]c2ccccc2)CCCC1 (centres undefined) |  | 28.9 µM |  | > 100 µM |  | > 100 µM |  | > 100 µM |  | 25.5 µM |  | > 100 µM |  | 39.3 µM |  | 54.8 µM |  | > 100 µM |  | 62.9 µM |
| CC[C@]1(O)C[C@@H]2CN(CCc3c([nH]c4ccccc34)[C@@](C(=O)OC)(c3cc4c(cc3OC)N(C)[C@H]3[C@@](O)(C(=O)OC)[C@H](OC(C)=O)[C@]5(CC)C=CCN6CC[C@]43[C@@H]65)C2)C1 | < 0.01 µM | 14.5 µM | < 0.01 µM | > 100 µM | < 0.01 µM | 13 µM | < 0.01 µM | 14.4 µM | < 0.01 µM | > 100 µM | < 0.01 µM | 15.1 µM | < 0.01 µM | 8.54 µM | < 0.01 µM | 0.592 µM | 6.02 µM | 26.9 µM | < 0.01 µM | 17.4 µM |
| COc1cc(C2=NOC(c3cc(OC)c(OC)c(OC)c3)C2)ccc1OCCCCOc1cc2c(cc1OC)C(=O)N1CCC[C@H]1C=N2 (some centres undefined) | 0.282 µM | 0.913 µM | 0.348 µM | 11.9 µM | 0.243 µM | 0.537 µM | 0.298 µM | 0.882 µM | 0.241 µM | 0.559 µM | 0.275 µM |  | 0.271 µM | 0.682 µM | 0.35 µM | 1.6 µM | 0.273 µM | 0.704 µM | 0.171 µM | 0.335 µM |
| O=C(N/N=C/c1ccccc1O)c1ccccc1Nc1ccnc(C(F)(F)F)c1 | 0.46 µM | 9.26 µM | 0.505 µM | > 30.9 µM | 0.0154 µM | 0.0883 µM | 0.484 µM | 32.7 µM | 1.33 µM | > 44.9 µM | 0.255 µM | 11.2 µM | 0.189 µM | 1.64 µM | 2.25 µM | 52.2 µM | 0.467 µM | > 100 µM | 0.365 µM | 7 µM |
| O=C(/C=C/c1c(O)ccc2ccccc12)c1cccc(O)c1 |  | > 100 µM |  | > 100 µM |  | > 100 µM |  | > 100 µM |  | > 100 µM |  | > 100 µM |  | > 100 µM |  | > 100 µM |  | > 100 µM |  | 69.1 µM |
| CC[C@@H]1CN(C)[C@H]2Cc3c([nH]c4ccccc34)C(=O)C[C@H]1C2C(=O)OC (some centres undefined) |  | > 100 µM |  | > 100 µM |  | > 100 µM |  | > 100 µM |  | > 100 µM |  | > 100 µM |  | > 100 µM |  | > 100 µM |  | > 100 µM |  | > 100 µM |
| CC(C)(C)OC(=O)N1CCc2c(sc3ncnc(N/N=C/c4cccc5ccccc45)c23)C1 | 4.83 µM | > 100 µM | 3.64 µM | > 100 µM | 3.94 µM | > 100 µM | 4.3 µM | 76.9 µM | 5.25 µM | > 100 µM | 3.29 µM | 12.7 µM | 2.28 µM | 8.49 µM | 1.67 µM | 8.2 µM | 5.89 µM | > 100 µM | 2.65 µM | 10.2 µM |
| Oc1ccc(CN2CCC(N3CCCCC3)CC2)c2cccnc12 | 19.3 µM | > 100 µM | 6.68 µM | > 100 µM | 23.4 µM | > 100 µM | 30.3 µM | > 100 µM | 6.05 µM | > 100 µM | 4.01 µM | > 100 µM | 6.33 µM | > 100 µM | 2.85 µM | > 100 µM | 78.2 µM | > 100 µM | 4.87 µM | 67.5 µM |
| CS(=O)(=O)c1ccc([C@H]2O[C@@H](CO)C[C@]2(O)c2ccc(S(C)(=O)=O)cc2)cc1 | > 100 µM | > 100 µM | > 100 µM | > 100 µM | > 100 µM | > 100 µM | > 100 µM | > 100 µM | > 100 µM | > 100 µM | > 100 µM | > 100 µM | > 100 µM | > 100 µM | > 100 µM | > 100 µM | > 100 µM | > 100 µM | > 100 µM | > 100 µM |
| CCOc1cc2c(Cl)ncnc2c(OCC)c1OCC | 19 µM | 36.8 µM | 24.6 µM | > 79.8 µM | 1.6 µM | 3.53 µM | 4.96 µM | 16.4 µM | 7.71 µM | 24.2 µM | 5.21 µM | 17.7 µM | 3.29 µM | 20.6 µM | 3.11 µM | 15.9 µM | 26.9 µM | > 76.2 µM | 6.99 µM | 20.2 µM |
| NC(=O)C(=O)N/N=C(\CC1(O)C(=O)Nc2ccccc21)c1ccc2ccccc2c1 (centres undefined) |  | > 100 µM |  | 43.9 µM |  | > 100 µM |  | 58.7 µM |  | 76.7 µM |  | > 100 µM |  | 86.3 µM |  | > 100 µM |  | > 100 µM |  | 77.9 µM |
| CCCCN=C(NC#N)NCCCC |  | > 100 µM |  | > 100 µM |  | > 100 µM |  | > 100 µM |  | > 100 µM |  | > 100 µM |  | > 100 µM |  | > 100 µM |  | > 100 µM |  | > 100 µM |
| FC(F)(F)c1cccc(Nc2nccc(-c3cnn4nc(-c5ccccc5)ccc34)n2)c1 | 5.22 µM | 11.2 µM | 5.36 µM | > 14.3 µM | 11.4 µM | > 25 µM | 6.46 µM | > 19.6 µM | 9.13 µM | > 25 µM | 5.23 µM | 11.1 µM | 12.9 µM | > 25 µM | 3.91 µM | 9.6 µM | 9.22 µM | > 19.2 µM | 14.4 µM | > 25 µM |
| N#Cc1cc([N+](=O)[O-])ccc1NC(=O)C(=O)Nc1n[nH]c(N)n1 |  | > 100 µM |  | > 100 µM |  | > 100 µM |  | > 100 µM |  | > 100 µM |  | > 100 µM |  | > 100 µM |  | > 100 µM |  | > 100 µM |  | > 100 µM |
| COC(=O)[C@]12CC[C@@H](C)[C@H](C)[C@@H]1C1=CC[C@@H]3[C@@]4(C)C/C(=N\O)[C@H](O)[C@@]5(C)COC(=C45)C[C@@]3(C)[C@]1(C)CC2 | 1.76 µM | 3.26 µM | 10.4 µM | 24.4 µM | 8.87 µM | 25.1 µM | 5.77 µM | 20.2 µM | 6.89 µM | 22.3 µM | 3.29 µM | 10.7 µM | 2.67 µM | 6.82 µM | 3.51 µM | 21.4 µM | 18.3 µM | 33.9 µM | 12.6 µM | 27.1 µM |
| COc1cc(C2NC(=O)c3ccccc3N2)ccc1OCCCCCOc1c(OC)cc(C2=NOC(c3cc(OC)c(OC)c(OC)c3)C2)cc1OC (centres undefined) | 27.4 µM | > 78.7 µM | 2.25 µM | 97.7 µM | 0.601 µM | > 71 µM | 7.59 µM | 98.8 µM | 0.484 µM | > 80 µM | 14.2 µM | 67.2 µM | 0.0754 µM | 1.1 µM | 19.6 µM | > 100 µM | > 100 µM | > 100 µM | 0.506 µM | > 100 µM |
| O=C1Nc2c(C(F)(F)F)cccc2[C@]1(c1ccc(O)cc1)c1ccc(OC(F)(F)F)cc1 | 13.2 µM | 28.1 µM | 5.26 µM | 20 µM | 9.42 µM | 23.4 µM | 11.3 µM | 24.2 µM | 11 µM | 26.4 µM | 8.43 µM | 28.8 µM | 10.4 µM | 59.1 µM | 5.78 µM | 19.5 µM | 11.5 µM | 25.3 µM | 11.9 µM | 25 µM |
